Measurements published in EP0355842A2, “External preparation” (Sansho Seiyaku Co., Ltd., priority 1988, dated 1990).

tested on: B16 cells; assay: Melanin-production test of B16 cells; type: cell-based, mouse; settings: evaluated concentration 80 µM; culture for 5 days
Method: Experimental Example: Melanin-production test of B16 cells
B16 cells (4 x 10⁴) derived from mouse melanoma are suspended in Eagle MBM medium containing bovine fetal serum (10 ml) for culture in the presence of 5% CO₂ at 37°C in 25-cm³ Rou bottle. At day 0 and 3, the medium is replaced for a medium containing each of the above substances of 80 µM/l or 60 µM/l to continue the culture for 5 days. The cells washed with phosphate buffer (pH 7.2) containing 0.8 W/V NaCl, were separated using the solution containing trypsin and EDTA, and filtered to recover the cells. The cells recovered on the filter were measured of their reflection luminous intensity (degree of darkness) at 500 nm with a densitometer.

Compound | Melanin levels [µg/10^6 cells] | Number of cells
CCCCCCC=CCCCCCCCCC(=O)OCC(COC(=O)CCCCCCCCC=CCCCCCC)OC(=O)CCCCCCCCC=CCCCCCC (stereo not drawn) [Triheptadecenoin] | 1.0 | 2.7 × 10^4 cells
CCC=CCC(=O)OC(CO)CO [2-Monohexenoin] | 4.3 | 2.4 × 10^4 cells
CCCCCC/C=C\CCCCCCCC(=O)OCC(O)COC(=O)CCCCCCC/C=C\CCCCCC [1,3-Dipalmitolein] | 0.1 | 2.1 × 10^4 cells
2-Monopentadecenoin | 0.1 | 2.2 × 10^4 cells
CCC=CCCCCCCCC(=O)OCC(CO)OC(=O)CCCCCCCC=CCC (stereo not drawn) [1,2-Didodecenoin] | 4.0 | 2.4 × 10^4 cells
CCCCC=CCCCCCCCCC(=O)OC [10-Pentadecenoic acid methyl] | 0.1 | 2.7 × 10^4 cells
CCC=CCCCCCCCCC(=O)O [10-Tridecenoic acid] | 3.0 | 2.7 × 10^4 cells
CCCC/C=C\CCCCCCCC(=O)OCC(O)CO (stereo not drawn) [1-Monomyristolein] | 2.2 | 2.5 × 10^4 cells
CCCCCCC=CCCCCCCCCC(=O)OC(CO)CO [2-Monoheptadecenoin] | 0.3 | 2.2 × 10^4 cells
CCCC/C=C\CCCCCCCC(=O)OCC(COC(=O)CCCCCCC/C=C\CCCC)OC(=O)CCCCCCC/C=C\CCCC [Trimyristolein] | 1.5 | 2.5 × 10^4 cells
CCCCC=CCCCCCCCCC(=O)OCC(COC(=O)CCCCCCCCC=CCCCC)OC(=O)CCCCCCCCC=CCCCC (stereo not drawn) [Tripentadecenoin] | 0.2 | 2.2 × 10^4 cells
CCCCCCC=CCCCCCCCCC(=O)O [10-Heptadecenoic acid] | 0.5 | 2.6 × 10^4 cells
CCCCCCC=CCCCCCCCCC(=O)OCC(O)CO (stereo not drawn) [1-Monoheptadecenoin] | 0.4 | 2.0 × 10^4 cells
CCCC/C=C\CCCCCCCC(=O)OC [Myristoleic acid methyl] | 1.2 | 2.6 × 10^4 cells
CCCCC=CCCCCCCCC(=O)O [9-Tetradecenoic acid] | 0.3 | 2.5 × 10^4 cells
CCCC/C=C\CCCCCCCC(=O)OCC(O)COC(=O)CCCCCCC/C=C\CCCC [1,3-Dimyristoelin] | 1.2 | 2.0 × 10^4 cells
CCCC=CCCCCC(=O)O [6-Decenoic acid] | 4.8 | 2.6 × 10^4 cells
CCCC=CCCCCCC(=O)OC(CO)CO [2-Monoundecenoin] | 3.9 | 2.5 × 10^4 cells
CCCCC=CCCCCCCCCC(=O)OCC(O)CO (stereo not drawn) [1-Monopentadecenoin] | 0.1 | 2.4 × 10^4 cells
CC=CCCCCC(=O)O [6-Octenoic acid] | 4.7 | 2.6 × 10^4 cells
CCCCC=CCC=CCCCCC(=O)O [6,9-Tetradecadienoic acid] | 0.3 | 2.5 × 10^4 cells
CC=CC(=O)O [2-Butenoic acid] | 4.6 | 2.7 × 10^4 cells
CCC=CCC=CCCCCCC(=O)O [7,10-Tridecadienoic acid] | 3.2 | 2.4 × 10^4 cells

Compound | Melanin levels [µg/10^6 cells] | Number of cells
CCCCCCC=CCCCCCCCCC(=O)OCC(O)COC(=O)CCCCCCCCC=CCCCCCC (stereo not drawn) [1,3-Heptadecenoin] | 1.2 | 2.1 × 10^4 cells
CCCCCC/C=C\CCCCCCCC(=O)OC(CO)CO [2-Monopalmitolein] | 0.1 | 2.1 × 10^4 cells
CCCCCC/C=C\CCCCCCCC(=O)OCC(COC(=O)CCCCCCC/C=C\CCCCCC)OC(=O)CCCCCCC/C=C\CCCCCC [Tripalmitolein] | 0.1 | 2.1 × 10^4 cells
CCCCCC/C=C\CCCCCCCC(=O)OCC(O)CO (stereo not drawn) [1-Monopalmitolein] | 0.1 | 2.2 × 10^4 cells
CCCC=CCCCCCC(=O)O [7-Undecenoic acid] | 4.7 | 2.7 × 10^4 cells
CCCCCC/C=C/CCCCCCCC(=O)OC[C@H](COP(=O)([O-])OCC[N+](C)(C)C)OC(=O)CCCCCCC/C=C/CCCCCC [L-α-Lecithin dipalmitoelaidoyl] | 3.8 | 2.7 × 10^4 cells
CCCCCC/C=C\CCCCCCCC(=O)OC [Palmitoleic acid methyl] | 0.1 | 2.6 × 10^4 cells
CCCCCCC=CCC=CCCCCC(=O)O [6,9-Hexadecadienoic acid] | 0.1 | 2.4 × 10^4 cells
CCCCCC/C=C\CCCCCCCC(=O)OCC(CO)OC(=O)CCCCCCC/C=C\CCCCCC (stereo not drawn) [1,2-Dipalmitolein] | 0.1 | 2.2 × 10^4 cells
CCCCCC/C=C\CCCCCCCC(=O)OC[C@H](COP(=O)([O-])OCC[N+](C)(C)C)OC(=O)CCCCCCC/C=C\CCCCCC [L-α-Lecithin dipalmitoleyl] | 3.9 | 2.8 × 10^4 cells
CCCCCCC=CCCCCCCCC(=O)O [9-Hexadecenoic acid] | 0.1 | 3.2 × 10^4 cells
CCCCC=CCCCCCCCCC(=O)O [10-Pentadecenoic acid] | 0.1 | 2.6 × 10^4 cells
CCC=CCCCCCCCC(=O)O [9-Dodecenoic acid] | 4.6 | 2.7 × 10^4 cells
CCC=CCC=CCCCCC(=O)O [6,9-Dodecadienoic acid] | 4.4 | 2.5 × 10^4 cells
CCCCC=CCC=CCCCCCC(=O)O [7,10-Pentadecadienoic acid] | 0.1 | 2.6 × 10^4 cells
CCCC/C=C\CCCCCCCC(=O)OCC(CO)OC(=O)CCCCCCC/C=C\CCCC (stereo not drawn) [1,2-Dimyristolein] | 2.8 | 2.5 × 10^4 cells
CCC=CCCCCCCCC(=O)OCC(O)CO (stereo not drawn) [1-Monododecenoin] | 4.2 | 2.7 × 10^4 cells
CCCCC=CCCCCCCCCC(=O)OCC(CO)OC(=O)CCCCCCCCC=CCCCC (stereo not drawn) [1,2-Dipentadecenoin] | 0.1 | 2.5 × 10^4 cells
CCCC=CCC=CCC=CCCCCC(=O)O [6,9,12-Hexadecatrienoic acid] | 0.1 | 2.5 × 10^4 cells
CCCCCCC=CCCCCCCCCC(=O)OC [10-Heptadecenoic acid methyl] | 2.0 | 2.5 × 10^4 cells
CC=CCCCCC(=O)OCC(O)CO (stereo not drawn) [1-Monooctenoin] | 4.5 | 2.6 × 10^4 cells
CCCCC=CCCCCCCCCC(=O)OCC(O)COC(=O)CCCCCCCCC=CCCCC (stereo not drawn) [1,3-Dipentadecenoin] | 0.2 | 2.1 × 10^4 cells
